In ChEMBL document CHEMBL1955855, “A domino Knoevenagel hetero-Diels-Alder reaction for the synthesis of polycyclic chromene derivatives and evaluation of their cytotoxicity” (Bioorg Med Chem Lett, 2012):

Columns and labels:
[1] = test system: B16; experiment: Cytotoxicity against mouse B16 cells after 72 hrs by MTT assay; assay type: functional, cell-based
[2] = test system: A549; experiment: Cytotoxicity against human A549 cells after 72 hrs by MTT assay; assay type: functional, cell-based
[3] = Homo sapiens, A549, 72 h, read-out: IC50
[4] = Mus musculus, B16, 72 h, read-out: IC50

Row | SMILES | IC50 ([1]; b16) | IC50 [2, 3] [µM] | IC50 [1, 4] [µM] | IC50 ([2]; a549)
1 | CC1(C)OC2=C(C(=O)c3ccccc32)[C@H]2C3=Cc4cc(Cl)ccc4O[C@@]3(C)CC[C@H]21 | Not Active | 26.3 |  | 
2 | CC1(C)OC2=C(C(=O)CCC2)[C@H]2C3=Cc4ccccc4O[C@@]3(C)CC[C@H]21 (relative stereo) |  | 20.8 | 12.8 | 
3 | CC1(C)CC(=O)C2=C(C1)OC(C)(C)[C@@H]1CC[C@]3(C)Oc4ccccc4C=C3[C@H]21 (relative stereo) |  | 8.64 | 10.2 | 
4 | Cn1c2c(c(=O)n(C)c1=O)[C@H]1C3=Cc4ccccc4O[C@@]3(C)CC[C@H]1C(C)(C)O2 (relative stereo) |  | 3.8 | 8.47 | 
5 | CC1(C)Oc2c(c(=O)oc3ccccc23)[C@H]2C3=Cc4ccccc4O[C@@]3(C)CC[C@H]21 (relative stereo) |  | 9.58 | 35.7 | 
6 | CC1(C)OC2=C(C(=O)CCC2)[C@H]2C3=Cc4cc(Cl)ccc4O[C@@]3(C)CC[C@H]21 (relative stereo) |  | 4.01 | 2 | 
7 | Cn1c2c(c(=O)n(C)c1=O)[C@H]1C3=Cc4cc(Cl)ccc4O[C@@]3(C)CC[C@H]1C(C)(C)O2 (relative stereo) |  |  | 7.69 | Not Active
8 | CC1(C)Oc2c(c(=O)oc3ccccc23)[C@H]2C3=Cc4cc(Cl)ccc4O[C@@]3(C)CC[C@H]21 (relative stereo) |  | 0.26 | 20.4 | 
9 | CC1(C)OC2=C(C(=O)CCC2)[C@H]2C3=Cc4cc(Br)ccc4O[C@@]3(C)CC[C@H]21 (relative stereo) |  | 19.7 | 16.5 | 
10 | CC1(C)CC(=O)C2=C(C1)OC(C)(C)[C@@H]1CC[C@]3(C)Oc4ccc(Br)cc4C=C3[C@H]21 (relative stereo) |  | 6.13 | 12.5 | 
11 | COc1cccc2c1C(=O)c1c(O)c3c(c(O)c1C2=O)C[C@@](O)(C(=O)CO)C[C@@H]3O[C@H]1C[C@H](N)[C@H](O)[C@H](C)O1 [DOXORUBICIN] |  | < 0.1 | < 0.1 | 
